System: 1143 mel tumor cells
Assay: Migration assay (matrigel)
Assay type: cell-based, human
Details: 1143 mel cells stably expressing the construct, 48 h
Description: 2.5×10^4 1143 mel tumor cells and transfected tumor cells were seeded into the upper chamber with 0.75 ml of RPMI-1640 serum-free medium in BIOCOAT […] Cells (Becton Dickinson, San Jose, Calif.). The bottom chamber contained 0.75 ml of RPMI-1640 serum-free medium (control medium) or 0.75 ml of RPMI-1640/10% FCS (complete medium). After incubation at 37° C. and 5% CO2 for 48 h, Cells in the lower chambers were fixed in 4% formaldehyde in PBS at room temperature for 20 min, stained with crystal violet, and examined and counted from four different fields under a compound microscope.
The migratory ability of these cell lines expressing wild type or mutant FN was further evaluated. […] To rule out clonal variation, similar experiments were repeated with four sets of independent tumor cell clones expressing either wild-type, mutant FN or empty vector. […] The P-value for significant difference is 0.0007 among the two comparison groups of cell clones expressing mutant FN and other cell clones expressing either wild-type FN, empty vector. There were no statistically significant differences among groups of parental 1143 mel and its derivative clones expressing wild-type or empty vector.

mutant FN: mutated fibronectin with Glu to Lys substitution at position 2053
migration from chamber with control medium to chamber with complete medium: enhanced migration ability

wild-type FN: wild-type fibronectin
migration from chamber with control medium to chamber with complete medium: little or no migration

Reference: patent US20040023314A1, “Mutant fibronectin and tumor metastasis” (Baylor College of Medicine, priority 2002, published 2004)
